# Article PMC8236048, “Pharmaceutical design of a delivery system for the bacteriocin lacticin 3147” (Drug Delivery and Translational Research, 2021)
# Legend:
# C. difficile = conditions: treatment failures of C. difficile infection after use of antibiotics; cited from earlier work
# Description: Approximately 223,900 C. difficile infections and 12,800 resulting deaths were reported in the USA in 2017 [17]. Treatment failures and recurrences of infection after the use of antibiotics are increasingly common, with a 2–38% failure rate for vancomycin and 8–50% for metronidazole. A more virulent strain of C. d ...
# pepsin = target: T1, pepsin (Sus scrofa, UniProt P00791); assay: Enzyme degradation of lacticin 3147 by pepsin (activity, MALDI-TOF, RP-HPLC); assay type: in vitro ADME; conditions: 3 h; for intact peptide after incubation with pepsin (MALDI-TOF): 25 mg/ml pepsin, 13.38 µg/ml Ltnα, 11.86 µg/ml Ltnβ, pH 2.29, n = 3; for concentration with versus without pepsin (RP-HPLC): 60 mg/ml pepsin, 62.5 µg/ml peptide, 37 °C, RP-HPLC UV 214 nm
# T1 construct: purchased Sigma-Aldrich Ireland Ltd
# Experimental: (§1) Lacticin 3147 production was confirmed by matrix-assisted laser desorption ionization-time of flight (MALDI-TOF) mass spectrometry using sinapinic acid as the matrix. About 0.7 μl of the matrix solution (sinapinic acid, 4 mg/ml in 50% acetone/50% methanol) was added to the target plate and left to evaporate (30 s) at ambient conditions. Individual peptides (Ltnα or Ltnβ) were resuspended in 70% IPA and mixed at a 1:1 volume ratio with a 10-mg/ml stock solution of sinapinic acid in 60% ACN with 0.1% TFA. About 0.3 μl of this peptide-matrix solution was then added to the matrix layer previously applied to the plate and evaporated at ambient conditions. The plate was inserted into a MALDI-TOF Ultraflex mass spectrometer (Bruker) and analysed using reflectron positive 700–3500 Da mode. 100 shots were fired at 88% intensity. This method was also used for the analyses of samples from the enzyme degradation studies.
# All lacticin 3147 samples were filtered through a 0.2-µm PES filter before analysis by RP-HPLC using an Agilent 1200 Infinity Series HPLC (Agilent Technologies, USA). The HPLC separations were carried out on an Aeris 3.6 µm Peptide 100 Å 250 × 4.6 mm, liquid chromatography column with a flow rate of 0.8 ml/min, and with 0.1% trifluoroacetic acid (TFA) in water as aqueous phase-A and 0.1% TFA in acetonitrile (ACN) as organic phase-B. The total run time was 51 min. The mobile phase started with 30:70 A:B for 3 min and change linearly to 35:65 A:B over 30 min. The organic phase was then adjusted to 100% within 1 min and continued to flow for 5 min. After this, the mobile phase returned to the initial ratio to stabilize the chromatographic system. The detector was set at 214 nm. The peak area (mAU) was plotted against the concentration (1.56–500 µg/ml) to make a calibration curve. The coefficients of determination (R^2 values) were 0.9963 and 0.9983 for Ltnα and Ltnβ respectively. This method was subsequently used for quantitative analysis of Ltnα and Ltnβ.
# (§2) Trypsin and α-chymotrypsin stock solutions (50 mg/ml) were resuspended in water. Pepsin (50 mg/ml) was resuspended in 0.02 M HCL. About 1 mg/ml individual solutions of Ltnα and Ltnβ in 70% IPA were filtered and diluted (1 in 20) in sterile PBS to give a final peptide concentration of 50 µg/ml. After this, 5.3 µl Ltnα and 4.6 µl Ltnβ were added to the same well of a 96-well plate. The pH of the lacticin 3147-pepsin solution was 2.29. Control wells consisting of Ltnα and Ltnβ together, Ltnα alone, and Ltnβ alone with no enzyme were included. The 96-well plate was incubated for 3 h at 37 °C to allow the enzyme to act. After incubation, the wells were filled to 50 μl with PBS and 150 μl of diluted bacterial cell culture (L. monocytogenes at an OD of 0.1) was added to each well. The final peptide concentration of 400 nM (1.31 µg/ml Ltnα, 1.14 µg/ml Ltnβ) was obtained when the wells were filled to 200 µl. Blanks were set up in triplicate with media only and PBS only. The three control wells were also set up with bacterial culture and each enzyme only. […] The effect of the proteases pepsin, α-chymotrypsin, and trypsin on the lacticin 3147 peptides was determined by MALDI-TOF mass spectrometry. […] After 3 h, 1 µl was removed from each sample and it was analysed by MALDI-TOF mass spectrometry. […]
# Pepsin’s effect on lacticin 3147 was also investigated by RP-HPLC. […] After incubation, aliquots were taken, filtered, and analysed by RP-HPLC to determine if pepsin degrades Ltnα or Ltnβ to any extent.
# trypsin = assay: Enzyme degradation of lacticin 3147 by trypsin (activity, MALDI-TOF); assay type: in vitro ADME; conditions: 3 h incubation, n = 3
# Experimental: as §1
# Trypsin and α-chymotrypsin stock solutions (50 mg/ml) were resuspended in water. Pepsin (50 mg/ml) was resuspended in 0.02 M HCL. […] The effect of the proteases pepsin, α-chymotrypsin, and trypsin on the lacticin 3147 peptides was determined by MALDI-TOF mass spectrometry. […] After 3 h, 1 µl was removed from each sample and it was analysed by MALDI-TOF mass spectrometry. […]
# α-chymotrypsin = target: T2, α-chymotrypsin (Bos taurus, UniProt P00766); assay: Enzyme degradation of lacticin 3147 by α-chymotrypsin (activity, MALDI-TOF); assay type: in vitro ADME; conditions: 3 h incubation, n = 3
# T2 construct: purchased Sigma-Aldrich Ireland Ltd
# Experimental: as §1
# as §2, with “µl.” for “µl. Blanks were set up in triplicate with media only and PBS only. The three control wells were also set up with bacterial culture and each enzyme only.”
# T1 sequence (P00791 60-385): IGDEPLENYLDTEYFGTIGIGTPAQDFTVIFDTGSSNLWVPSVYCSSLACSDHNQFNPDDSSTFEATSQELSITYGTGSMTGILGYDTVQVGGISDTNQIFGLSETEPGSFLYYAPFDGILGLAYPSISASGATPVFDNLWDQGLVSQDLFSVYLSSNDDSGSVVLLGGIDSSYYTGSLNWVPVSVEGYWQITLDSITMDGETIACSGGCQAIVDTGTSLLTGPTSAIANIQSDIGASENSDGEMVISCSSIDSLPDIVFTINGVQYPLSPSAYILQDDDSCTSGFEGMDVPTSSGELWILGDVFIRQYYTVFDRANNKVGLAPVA
SMILES,failure rate (C. difficile),intact peptide after incubation with pepsin (MALDI-TOF) (pepsin),concentration with versus without pepsin (RP-HPLC) (pepsin),intact peptide after incubation with trypsin (MALDI-TOF) (trypsin),intact peptide after incubation with α-chymotrypsin (MALDI-TOF) (α-chymotrypsin)
Cc1ncc([N+](=O)[O-])n1CCO [metronidazole],8–50%,–,–,–,–
CC=C(NC(=O)C1CSCC(N)C(=O)N1)C(=O)N[C@@H](CC(N)=O)C(=O)NC(=CC)C(=O)N[C@@H](Cc1ccccc1)C(=O)N[C@H](C)C(=O)N[C@@H](CC(C)C)C(=O)NC1CSCC(C(=O)NC2C(=O)N[C@@H](CC(C)C)C(=O)NC3C(=O)N[C@@H](Cc4c[nH]cn4)C(=O)N[C@@H](CCC(=O)O)C(=O)NC(CSC2C)C(=O)N[C@@H](CCSC)C(=O)N[C@@H](C)C(=O)N[C@@H](Cc2c[nH]c4ccccc24)C(=O)NC(C(=O)N[C@@H](CCCCN)C(=O)O)CSC3C)NC(=O)[C@H](Cc2c[nH]c3ccccc23)NC(=O)[C@H](C)NC(=O)CNC(=O)[C@H](CC(N)=O)NC(=O)[C@H](CC(N)=O)NC(=O)CNC(=O)[C@H](Cc2c[nH]c3ccccc23)NC(=O)[C@H](Cc2ccc(O)cc2)NC(=O)[C@H](CC(=O)O)NC1=O (stereo partly shown) [Ltnα],–,Masses corresponding to Ltnα and Ltnβ can be seen,not significantly different,no masses corresponding to intact,no masses corresponding to intact
CN[C@H](CC(C)C)C(=O)N[C@H]1C(=O)N[C@@H](CC(N)=O)C(=O)N[C@H]2C(=O)N[C@H]3C(=O)N[C@H](C(=O)N[C@H](C(=O)O)c4cc(O)cc(O)c4-c4cc3ccc4O)[C@H](O)c3ccc(c(Cl)c3)Oc3cc2cc(c3O[C@@H]2O[C@H](CO)[C@@H](O)[C@H](O)[C@H]2O[C@H]2C[C@](C)(N)[C@H](O)[C@H](C)O2)Oc2ccc(cc2Cl)[C@H]1O [vancomycin],2–38%,–,–,–,–
CC=C(NC(=O)C(=O)CC)C(=O)N1CCC[C@H]1C(=O)N[C@@H](C)C(=O)NC(=CC)C(=O)N1CCC[C@H]1C(=O)N[C@@H](C)C(=O)N[C@H](C(=O)N[C@H](C)C(=O)N[C@H](C(=O)N[C@@H](CC(C)C)C(=O)N[C@H](C)C(=O)N[C@@H](C)C(=O)N[C@@H](Cc1ccc(O)cc1)C(=O)N[C@H](C(=O)NC1CSCC(C(=O)N2CCC[C@H]2C(=O)NC2C(=O)N[C@@H]([C@@H](C)O)C(=O)N[C@@H](CCCCN)C(=O)NC(C(=O)NC3C(=O)N[C@@H](CCCNC(=N)N)C(=O)N[C@@H](C)C(=O)NC(C(=O)O)CSC3C)CSC2C)NC(=O)[C@H]([C@@H](C)O)NC(=O)[C@H](CC(N)=O)NC(=O)[C@H]([C@@H](C)O)NC1=O)[C@@H](C)CC)[C@@H](C)CC)[C@@H](C)CC (stereo partly shown) [Ltnβ],–,Masses corresponding to Ltnα and Ltnβ can be seen,not significantly different,no masses corresponding to intact,no masses corresponding to intact
